Series [1] deals with CYP3A4 (Homo sapiens, UniProt P08684). The experiment in a line: Inhibition of CYP3A4 in human liver microsomes assessed as enzyme residual activity at 100 uM measured after 30 mins relative to control. Type of series: ADME. As to conditions: read-out: Activity.
In series [2] the target is Fibroblast growth factor receptor 1 (Rattus norvegicus) (UniProt Q04589). Description: Modulation of FGFR in Wistar rat neuronal cells assessed as protection against glutamate-induced toxicity at 10 uM pretreated for 24 hrs followed by glutamate-stimulation and measured after 24 hrs by CCK8 assay relative to SUN13837. Type of series: cell-based.
Series [3] is described as follows: Lipophilicity, log P of the compound by RP-HPLC analysis. The class given is physicochemical.
The nature of series [4]: Metabolic stability in human liver microsomes assessed as metabolic turnover rate per mg protein in presence of NADPH. Type of series: ADME, Microsome.
Series [5] can be described thus: Oral bioavailability in Sprague-Dawley rat at 5 mg/kg. The class given is ADME, organism-based. The settings on record: in vivo.
A short description of series [6]: Elimination half life in Sprague-Dawley rat at 3 mg/kg, iv. The settings on record: in vivo, read-out: beta t1/2 (converted). The class given is ADME, organism-based.
Series [7] can be described thus: AUC in Sprague-Dawley rat at 5 mg/kg, po. The settings on record: in vivo. The class given is ADME, organism-based.
Series [8] deals with Fibroblast growth factor receptor 1 (Rattus norvegicus) (UniProt Q04589). The experiment in a line: Modulation of FGFR in Wistar rat neuronal cells assessed as protection against glutamate-induced toxicity at 10 uM pretreated for 24 hrs followed by glutamate-stimulation and measured after 24 hrs in presence of FGFR1 inhibitor PD166866 by CCK8 assay. The class given is cell-based.

Series [9] in a line: Brain to plasma permeability coefficient, Kp of the compound in Sprague-Dawley rat at 3 mg/kg, iv measured after 1 hr. The class given is ADME, organism-based. As to conditions: brain and plasma.
Series [10] in a line: Clearance in Sprague-Dawley rat at 3 mg/kg, iv. Type of series: ADME, organism-based. The settings on record: in vivo.
Series [11] can be described thus: Brain to plasma permeability coefficient, Kp of the compound in Sprague-Dawley rat at 1 mg/kg, iv measured after 1 hr. The class given is ADME, organism-based. The settings on record: brain and plasma.
A short description of series [12]: Elimination half life in Sprague-Dawley rat at 1 mg/kg, iv. The class given is ADME, organism-based. The settings on record: in vivo, read-out: beta t1/2 (converted).
Series [13] can be described thus: Clearance in Sprague-Dawley rat at 1 mg/kg, iv. The class given is ADME, organism-based. The settings on record: in vivo.

Active and inactive are the calls of the source. No cut-off for these calls is given here. Where only a bound is given, the exact number is not on record here.

Sequence of CYP3A4 (P08684 whole entry): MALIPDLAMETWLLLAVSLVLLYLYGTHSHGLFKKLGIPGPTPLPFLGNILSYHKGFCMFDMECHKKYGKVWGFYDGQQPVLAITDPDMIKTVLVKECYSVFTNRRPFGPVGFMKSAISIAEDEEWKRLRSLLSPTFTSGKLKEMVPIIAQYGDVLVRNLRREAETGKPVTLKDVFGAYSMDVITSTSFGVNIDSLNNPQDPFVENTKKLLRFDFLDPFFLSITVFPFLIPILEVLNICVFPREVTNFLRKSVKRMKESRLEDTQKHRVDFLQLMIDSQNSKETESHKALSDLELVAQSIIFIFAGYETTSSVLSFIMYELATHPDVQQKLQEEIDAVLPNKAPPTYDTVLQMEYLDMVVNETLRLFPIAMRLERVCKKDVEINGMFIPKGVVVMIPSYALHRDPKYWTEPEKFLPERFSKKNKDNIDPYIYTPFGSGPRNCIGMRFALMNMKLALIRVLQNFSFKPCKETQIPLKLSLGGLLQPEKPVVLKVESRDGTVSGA
Sequence of Fibroblast growth factor receptor 1 (Rattus norvegicus) (Q04589 whole entry): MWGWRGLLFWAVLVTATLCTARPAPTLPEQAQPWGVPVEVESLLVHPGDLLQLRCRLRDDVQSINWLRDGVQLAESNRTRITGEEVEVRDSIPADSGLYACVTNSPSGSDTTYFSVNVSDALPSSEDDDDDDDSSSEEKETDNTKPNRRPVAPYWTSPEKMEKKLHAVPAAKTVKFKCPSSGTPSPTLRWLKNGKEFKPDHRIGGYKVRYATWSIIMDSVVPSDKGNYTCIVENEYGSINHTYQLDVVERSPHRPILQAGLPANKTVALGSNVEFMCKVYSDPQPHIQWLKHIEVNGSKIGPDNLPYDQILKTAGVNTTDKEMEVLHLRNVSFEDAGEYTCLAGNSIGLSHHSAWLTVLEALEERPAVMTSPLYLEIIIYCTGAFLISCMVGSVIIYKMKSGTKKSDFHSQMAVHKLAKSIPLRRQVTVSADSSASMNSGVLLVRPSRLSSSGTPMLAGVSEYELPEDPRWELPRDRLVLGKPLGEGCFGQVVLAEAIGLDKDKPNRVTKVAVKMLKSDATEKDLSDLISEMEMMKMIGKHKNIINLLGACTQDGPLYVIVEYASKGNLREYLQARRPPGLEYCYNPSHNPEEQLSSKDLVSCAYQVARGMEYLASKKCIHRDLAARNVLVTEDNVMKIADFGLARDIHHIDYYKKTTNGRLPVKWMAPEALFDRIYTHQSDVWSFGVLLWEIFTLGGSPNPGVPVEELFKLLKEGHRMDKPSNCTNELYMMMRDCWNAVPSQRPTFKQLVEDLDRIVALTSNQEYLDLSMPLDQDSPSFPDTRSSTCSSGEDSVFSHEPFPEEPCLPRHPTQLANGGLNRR

Take `Cc1c(COc2ncc(Cl)cn2)nnn1C1CCN(CC2CC2)CC1`: in series [1], the activity at 0.5 h, 100 µM stood at 94%. The Activity in series [2] was 311%. This molecule yielded a lipophilicity (logP) in series [3] of 2.4. For the same molecule, in [4], the Drug metabolism was less than 10 pmol/min. Besides, the bioavailability in [5] is 57%. Further, the half-life in series [6] is 4 h. In [7], this molecule yielded an area under the curve (AUC) of 4520 ng·h/mL. Besides, the Activity result in [8] is “inactive”. The same molecule came in with a Kp at 1 h in series [9] of 1.3. The same molecule gave a clearance in [10] of 10 mL/min/kg.
Turning to `Cc1ccc(OCc2cnnn2C2CCN(Cc3ccccc3)CC2)nn1`, the Activity in series [2] stood at 73%. The logP in [3] came to 3.8.
For the molecule `Cc1cnc(OCc2cn(C3CCN(CC4CC4)CC3)nn2)nc1`, in series [1], the activity at 0.5 h, 100 µM came to 100%. The Activity in series [2] worked out at 100%. The molecule also came in with a logP in series [3] of 1.7.
Regarding `Cc1nc(OCc2cn(C3CCN(Cc4ccccc4)CC3)nn2)nc(C)c1N`, in series [1], the activity at 0.5 h, 100 µM turned out to be 19%. Also, the Activity in series [2] came out at 134%. In addition, in series [3], the logP was 3. Also, the Drug metabolism in [4] is 19 pmol/min. Besides, the Activity result in [8] is “inactive”.
With `Cc1cnc(OCc2cn(C3CCN(Cc4ccccc4)CC3)nn2)nc1`, the activity at 0.5 h, 100 µM in series [1] was 100%. Besides, the Activity in series [2] is 66%. This molecule also yielded a logP in series [3] of 4. For the same molecule, in series [4], the Drug metabolism amounted to 40 pmol/min.
Taken in the same sequence, the figures for `Clc1cnc(OCc2cn(C3CCN(Cc4ccccc4)CC3)nn2)nc1` were 99%, 43%, 5 and 86 pmol/min.
Turning to `Cc1nc(OCc2cn(C3CCN(CC4CC4)CC3)nn2)nc(C)c1N`, the activity at 0.5 h, 100 µM in series [1] is 100%. Also, the Activity in [2] came out at 116%. In addition, the logP in [3] stood at 1.4. Besides, the Drug metabolism in series [4] is less than 10 pmol/min.
On to `Cc1ccc(OCc2cn(C3CCN(Cc4ccccc4)CC3)nn2)nn1`, for which, in series [1], the activity at 0.5 h, 100 µM was 100%. The Activity in series [2] turned out to be 135%. In [3], this molecule displayed a log partition coefficient (logP) of 3.5. The Drug metabolism in series [4] was found to be 45 pmol/min.
Take `Cc1nc(OCC(=O)N(C)C2CCN(Cc3ccccc3)CC2)nc(C)c1N`: in series [1], the activity at 0.5 h, 100 µM came out at 60%. The logP in series [3] is 2.3. Besides, the Drug metabolism in series [4] is given as less than 10 pmol/min.
In the case of `Clc1cnc(OCc2cn(C3CCN(CC4CC4)CC3)nn2)nc1`, in series [1], the activity at 0.5 h, 100 µM was found to be 100%. For the same molecule, the Activity in series [2] was 162%. For the same molecule, in series [3], the logP worked out at 2.6. Besides, the Drug metabolism in series [4] came to 24 pmol/min. This molecule displayed a bioavailability in series [5] of 58%. In [7], this molecule displayed an AUC of 2120 ng·h/mL. This molecule gave a Kp at 1 h in [11] of 1.1. In [12], the half-life was 1.6 h. The clearance in series [13] is 21.7 mL/min/kg.
Turning to `Cc1ccc(OCc2cn(C3CCN(CC4CC4)CC3)nn2)nn1`, the activity at 0.5 h, 100 µM in series [1] turned out to be 100%. Also, the Activity in series [2] was found to be 118%. The logP in series [3] worked out at 1.4. Moreover, the Drug metabolism in series [4] is on record as 34 pmol/min.

These data come from ChEMBL document CHEMBL4387771, “Discovery of 1,2,3-triazole-based fibroblast growth factor receptor modulators” (Bioorg Med Chem Lett, 2019).
